Results: patent publication US11376326B2, “GPC3-targeting therapeutic agent which is administered to patient for whom the GPC3-targeting therapeutic agent is effective” (CHUGAI SEIYAKU KABUSHIKI KAISHA, priority 2015, dated 2022)
Read-outs that look alike come from different tables or passages of the source.

Key:
[1] = tested on: human cell line HepG2 strongly expressing GPC3; assay: Antitumor effect in mouse graft models using HepG2; type: in vivo; conditions: HepG2 graft mice; GC33 or ag-GC33 5 mg/kg tail vein once a week x3; sorafenib 5 mg/kg oral five times a week for 3 weeks; from day 18; FIG. 1
Description: GC33 or ag-GC33 was administered at 5 mg/kg to the tail vein of each mouse once a week a total of three times from 18 days after HepG2 transplantation. Sorafenib was orally administered at 5 mg/kg to each mouse five times a week for 3 weeks from 18 days after HepG2 transplantation.

[2] = tested on: advanced hepatocellular carcinoma; conditions: cited from earlier work
[3] = tested on: advanced hepatocellular carcinoma; conditions: Asian trial; cited from earlier work
[4] = tested on: advanced hepatocellular carcinoma; conditions: cited from earlier work; remark: listed apart in the source
sGPC3-N = sGPC3-N in mouse plasma by ELISA (GT30/GT607) at completion of antitumor evaluation; type: in vivo; conditions: HepG2 graft mice, FIG. 2
Description: (§1) At the completion of the antitumor effect evaluation, plasma was collected from each mouse. Fragments of a soluble form of GPC3 were assayed by two types of ELISA methods differing in the combination of anti-GPC3 antibodies. In order to detect the fragments of a soluble form of GPC3 in ELISA, mouse monoclonal antibodies binding to the N-terminal subunit of human GPC3 were prepared as described in WO2004/022739. Hereinafter, the obtained antibodies are referred to as GT30 and GT607 for the sake of convenience. Also, mouse monoclonal antibodies binding to the C-terminal subunit of human GPC3 were prepared as described in WO2004/022739. Hereinafter, the obtained antibodies are referred to as GT96 and M3C11 for the sake of convenience. […]
(§2) Specifically, the detection of sGPC3-N and the detection of sGPC3-C by ELISA were performed as follows: first, the GT30 antibody diluted to 1 μg/mL with a carbonatebicarbonate buffer (manufactured by Sigma-Aldrich Co., LLC) or the M3C11 antibody adjusted to 128 μg/mL in the same way thereas was added at 50 μL/well to a 96-well microplate (manufactured by Meso Scale Discovery (MSD), Multi-array 96-well plate) and stirred at room temperature for 1 hour. […] After washing five times with a washing solution, a substrate solution (manufactured by Meso Scale Discovery (MSD), MSD Read Buffer T (4×) with Surfactant) was added thereto at 100 μL/well. […]

sGPC3-C = sGPC3-C in mouse plasma by ELISA (GT96/M3C11) at completion of antitumor evaluation; type: in vivo; conditions: HepG2 graft mice, FIG. 3
Description: as §1, §2

human GPC3 = human GPC3 (Homo sapiens, UniProt P51654); conditions: cited from earlier work

Row | Molecule | tumor enlargement inhibitory effect (tumor volume) [1] | HR of survival duration ([2]; both trials, versus placebo) | objective response rate ([2]; in vivo) | time to symptomatic progression ([2]; in vivo) | survival duration [3] | time to tumor radiological progression [3] | time to tumor radiological progression ([4]; European and American trial) | survival duration ([4]; SHARP trial) | sGPC3-N level in plasma (sGPC3-N) | sGPC3-C level in plasma (sGPC3-C) | binding affinity to human GPC3 (human GPC3)
1 | CNC(=O)c1cc(Oc2ccc(NC(=O)Nc3ccc(Cl)c(C(F)(F)F)c3)cc2)ccn1 [sorafenib] | the tumor enlargement inhibitory effect was weaker than that of GC33 | 0.68 | low | no prolongation | 6.5 months | 2.8 months | 5.5 months | 10.7 months | equivalent to the GC33 administration group | – | –
2 | GC33: recombinant humanized IgG1 monoclonal antibody binding to human GPC3 with high affinity (WO2006/006693) | tumor enlargement was inhibited as compared with the control group | – | – | – | – | – | – | – | a lower level of sGPC3-N was found as compared with the control group | higher in the GC33 administration group compared with the control group, the ag-GC33 group, and the sorafenib group | high affinity
